Test results reported in patent US12390486B2, “Method for treating diastolic heart failure by inhibiting galectin-3” (Henry Ford Health System, priority 2012, dated 2025).
Several values for one entry are separate records, joined by “and”; a condition that tells them apart may be missing. Equal entries are not always repeated.

System: dogs with microembolization-induced HF
Experiment: LacNAc in dogs with microembolization-induced HF (Example 2)
Assay type: in vivo, dog
Details: for VFIF (LV Volume fraction of interstitial fibrosis) / ODD (Oxygen diffusion distance) / VFRF (LV volume fraction of replacement fibrosis) / MCSA (myocyte cross-sectional area) / Cap/mm^2 (Capillary density) / Cardiac Output / PE/PA / Ei/Ai / Stroke Volume / Left Ventricular Fractional Area of Shortening / Left Ventricular Ejection Fraction / Left Ventricular End-Systolic Volume / Left Ventricular End-Diastolic Volume / Diastolic Aortic Pressure / Mean Aortic Pressure / Heart Rate / Systolic Aortic Pressure / DT / Systemic Vascular Resistance: individual dogs and Mean (n=3); for VFIF (LV Volume fraction of interstitial fibrosis): historical controls mean 12.95; for ODD (Oxygen diffusion distance): historical controls mean 13.10; for VFRF (LV volume fraction of replacement fibrosis): historical controls mean 13.8; for MCSA (myocyte cross-sectional area): historical controls mean 575; for Cap/mm^2 (Capillary density): historical controls mean 2063; for Cardiac Output / PE/PA / Ei/Ai / Stroke Volume / Left Ventricular Fractional Area of Shortening / Left Ventricular Ejection Fraction / Left Ventricular End-Systolic Volume / Left Ventricular End-Diastolic Volume / Diastolic Aortic Pressure / Mean Aortic Pressure / Heart Rate / Systolic Aortic Pressure / DT / Systemic Vascular Resistance: 115 mg LacNAc oral daily, 12 weeks; for Cardiac Output: PRE mean 1.41; for PE/PA: PRE mean 1.80; for Ei/Ai: PRE mean 2.98; for Stroke Volume: PRE mean 17; for Left Ventricular Fractional Area of Shortening: PRE mean 28.3; for Left Ventricular Ejection Fraction: PRE mean 30; for Left Ventricular End-Systolic Volume: PRE mean 39; for Left Ventricular End-Diastolic Volume: PRE mean 56; for Diastolic Aortic Pressure: PRE mean 62; for Mean Aortic Pressure: PRE mean 73; for Heart Rate: PRE mean 84; for Systolic Aortic Pressure: PRE mean 87; for DT: PRE mean 131; for Systemic Vascular Resistance: PRE mean 4209
Protocol: In this dog model of HF, the development of the disease is associated with an increase in the volume fraction of interstitial fibrosis in the left ventricular wall from a normal level of 3.5% (connective tissue) to as high as 25%. Dogs were treated for 3 months with daily oral administration of 115 mg of LacNAc. […] This finding is similar to that observed with MCP (Example 1), as illustrated in FIG. 2. […] All of these findings support a marked improvement of LV function and cellular remodeling sought for treatment of HFpEF.

[1] = 115 mg LacNAc oral daily for 3 months, 3 dogs
[2] = 115 mg LacNAc oral daily for 3 months
[3] = 115 mg LacNAc oral daily for 3 months, mean

In the case of `CC(=O)N[C@H]1C(O)O[C@H](CO)[C@@H](O[C@@H]2O[C@H](CO)[C@H](O)[C@H](O)[C@H]2O)[C@@H]1O` (stereo partly drawn) [LacNAc, N-acetyl-D-lactosamine], the “LV ejection fraction” value [1] is reported as “improved LV ejection fraction”, the “LV relaxation (Ei/Ai, PE/PA and DT)” value [1] is reported as “improved LV relaxation” and the “capillary density” value [1] is reported as “increased capillary density”. The “myocyte hypertrophy” value [1] was “decreased myocyte hypertrophy”, the “oxygen diffusion” value [1] was “increased oxygen diffusion” and the “stroke volume and cardiac output” value [1] was “increased stroke volume and cardiac output”. The “reduction of reactive interstitial fibrosis” value (115 mg LacNAc oral daily for 3 months, 3 dogs, compared to historical untreated controls matched for LV ejection fraction, gender, duration of heart failure) was ~57%, the “VFIF (LV Volume fraction of interstitial fibrosis)” value [2] was 5.27% (2×) and 6.07% and the “VFIF (LV Volume fraction of interstitial fibrosis)” value [3] was 5.54%. For the same compound, the “ODD (Oxygen diffusion distance)” value [2] was 9.18 μm and 9.48 μm and 9.11 μm, the “ODD (Oxygen diffusion distance)” value [3] was 9.26 μm and the “VFRF (LV volume fraction of replacement fibrosis)” value [2] was 10.4% and 13.6% and 13.8%. For the same compound, the “VFRF (LV volume fraction of replacement fibrosis)” value [3] was 12.6%, the “MCSA (myocyte cross-sectional area)” value [2] was 373 μm^2 and 393 μm^2 and 418 μm^2 and the “MCSA (myocyte cross-sectional area)” value [3] was 395 μm^2. For the same compound, the “Cap/mm^2 (Capillary density)” value [2] was 2989 Cap/mm^2 and 2977 Cap/mm^2 and 3042 Cap/mm^2, the “Cap/mm^2 (Capillary density)” value [3] was 3002 Cap/mm^2 and the “Cardiac Output” value was 2.02 L/min and 1.80 L/min and 1.67 L/min. For the same compound, the “Cardiac Output” value (mean) was 1.83 L/min, the PE/PA was 1.82 and 2.52 and 1.84 and the PE/PA (mean) was 2.06. For the same compound, the Ei/Ai was 4.26 and 4.43 and 3.25, the Ei/Ai (mean) was 3.98 and the “Stroke Volume” value was 24 mL and 20 mL and 19 mL. The “Stroke Volume” value (mean) was 21 mL, the “Left Ventricular Fractional Area of Shortening” value was 31% and 41% and 29% and the “Left Ventricular Fractional Area of Shortening” value (mean) was 33.7%. The “Left Ventricular Ejection Fraction” value was 42% and 38% and 31%, the “Left Ventricular Ejection Fraction” value (mean) was 37% and the “Left Ventricular End-Systolic Volume” value was 33 ml (2×) and 43 ml. The “Left Ventricular End-Systolic Volume” value (mean) was 36 mL, the “Left Ventricular End-Diastolic Volume” value was 57 mL and 53 mL and 62 mL and the “Left Ventricular End-Diastolic Volume” value (mean) was 57 mL. For the same compound, the “Diastolic Aortic Pressure” value was 60 mmHg and 67 mmHg and 62 mmHg, the “Diastolic Aortic Pressure” value (mean) was 63 mmHg and the “Mean Aortic Pressure” value was 72 mmHg and 76 mmHg and 73 mmHg. For the same compound, the “Mean Aortic Pressure” value (mean) was 74 mmHg, the “Heart Rate” value was 84 beats/min and 90 beats/min and 88 beats/min and the “Heart Rate” value (mean) was 87 beats/min. For the same compound, the “Systolic Aortic Pressure” value was 88 mmHg (2×) and 90 mmHg, the “Systolic Aortic Pressure” value (mean) was 89 mmHg and the DT was 162 msec (2×) and 115 msec. The DT (mean) was 146 ms, the “Systemic Vascular Resistance” value was 2857 dynes-sec-cm^-5 and 3378 dynes-sec-cm^-5 and 3493 dynes-sec-cm^-5 and the “Systemic Vascular Resistance” value (mean) was 3243 dynes-sec-cm^-5.
